Measured values as given in patent US20230128889A1, “REL/RELA/SPOT SMALL MOLECULES MODULATORS AND SCREENING METHODS” (priority 2020, published 2023).

B1: R249A D272A: RelTt with substitutions R249A and D272A (protein)
chain: MVGADLGLWNRLEPALAYLAPEERAKVREAYRFAEEAHRGQLRRSGEPYITHPVAVAEILAGLQMDADTVAAGLLHDTVEDCGVAPEELERRFGPTVRRIVEGETKVSKLYKLANLEGEERRAEDLRQMFIAMAEDVRIIIVKLADRLHNLRTLEHMPPEKQKRIAQETLEIYAPLAHRLGMGQLKWELEDLSFRYLHPEAFASLSARIQATQEARERLIQKAIHLLQETLARDELLQSQLQGFEVTGAPKHLYSIWKKMEREGKTLEQIYALLAVRVILDPKPAPTRESQALREKQVCYHVLGLVHALWQPIPGRVKDYIAVPKPNGYQSLHTTVIALEGLPLEVQIRTREMHRVAEYGIAAHWLYKEGLTDPEEVKRRVSWLKSIQEWQKEFSSSREFVEAVTKDLLGGRVFVFTPKGRIINLPKGATPVDFAYHIHTEVGHHMVGAKVNGRIVPLSYELQNGEIVEILTSKNAHPSKGWLEFAKTRSAKSKIRQYFRAQERQETLERGQHLLERYLKRRGLPKPTDSQLEEAAKRLSLPPSPEELYLALALNRLTPRQVAEKLYPKALLKPEKPKPQVRNEWGIRLEQDLQAPIRLASCCEPMKGDPILGFVTRGRGVTVHRADCPNLRRLLQGPEADRVIGAYWEGVGGKVVVLEVLAQDRAGLLRDVMQVVAEAGKSALGSETRVLGPLARIRLRLAVQDGEEERILQAVQKVSGVKEARWA
B2: R249A R277A: RelTt with substitutions R249A and R277A (protein)
chain: MVGADLGLWNRLEPALAYLAPEERAKVREAYRFAEEAHRGQLRRSGEPYITHPVAVAEILAGLQMDADTVAAGLLHDTVEDCGVAPEELERRFGPTVRRIVEGETKVSKLYKLANLEGEERRAEDLRQMFIAMAEDVRIIIVKLADRLHNLRTLEHMPPEKQKRIAQETLEIYAPLAHRLGMGQLKWELEDLSFRYLHPEAFASLSARIQATQEARERLIQKAIHLLQETLARDELLQSQLQGFEVTGAPKHLYSIWKKMEREGKTLEQIYDLLAVAVILDPKPAPTRESQALREKQVCYHVLGLVHALWQPIPGRVKDYIAVPKPNGYQSLHTTVIALEGLPLEVQIRTREMHRVAEYGIAAHWLYKEGLTDPEEVKRRVSWLKSIQEWQKEFSSSREFVEAVTKDLLGGRVFVFTPKGRIINLPKGATPVDFAYHIHTEVGHHMVGAKVNGRIVPLSYELQNGEIVEILTSKNAHPSKGWLEFAKTRSAKSKIRQYFRAQERQETLERGQHLLERYLKRRGLPKPTDSQLEEAAKRLSLPPSPEELYLALALNRLTPRQVAEKLYPKALLKPEKPKPQVRNEWGIRLEQDLQAPIRLASCCEPMKGDPILGFVTRGRGVTVHRADCPNLRRLLQGPEADRVIGAYWEGVGGKVVVLEVLAQDRAGLLRDVMQVVAEAGKSALGSETRVLGPLARIRLRLAVQDGEEERILQAVQKVSGVKEARWA
B3: R249A R277A Y329A: RelTt with substitutions R249A, R277A and Y329A (protein)
chain: MVGADLGLWNRLEPALAYLAPEERAKVREAYRFAEEAHRGQLRRSGEPYITHPVAVAEILAGLQMDADTVAAGLLHDTVEDCGVAPEELERRFGPTVRRIVEGETKVSKLYKLANLEGEERRAEDLRQMFIAMAEDVRIIIVKLADRLHNLRTLEHMPPEKQKRIAQETLEIYAPLAHRLGMGQLKWELEDLSFRYLHPEAFASLSARIQATQEARERLIQKAIHLLQETLARDELLQSQLQGFEVTGAPKHLYSIWKKMEREGKTLEQIYDLLAVAVILDPKPAPTRESQALREKQVCYHVLGLVHALWQPIPGRVKDYIAVPKPNGAQSLHTTVIALEGLPLEVQIRTREMHRVAEYGIAAHWLYKEGLTDPEEVKRRVSWLKSIQEWQKEFSSSREFVEAVTKDLLGGRVFVFTPKGRIINLPKGATPVDFAYHIHTEVGHHMVGAKVNGRIVPLSYELQNGEIVEILTSKNAHPSKGWLEFAKTRSAKSKIRQYFRAQERQETLERGQHLLERYLKRRGLPKPTDSQLEEAAKRLSLPPSPEELYLALALNRLTPRQVAEKLYPKALLKPEKPKPQVRNEWGIRLEQDLQAPIRLASCCEPMKGDPILGFVTRGRGVTVHRADCPNLRRLLQGPEADRVIGAYWEGVGGKVVVLEVLAQDRAGLLRDVMQVVAEAGKSALGSETRVLGPLARIRLRLAVQDGEEERILQAVQKVSGVKEARWA
B4: R249A D272A Y329A: RelTt with substitutions R249A, D272A and Y329A (protein)
chain: MVGADLGLWNRLEPALAYLAPEERAKVREAYRFAEEAHRGQLRRSGEPYITHPVAVAEILAGLQMDADTVAAGLLHDTVEDCGVAPEELERRFGPTVRRIVEGETKVSKLYKLANLEGEERRAEDLRQMFIAMAEDVRIIIVKLADRLHNLRTLEHMPPEKQKRIAQETLEIYAPLAHRLGMGQLKWELEDLSFRYLHPEAFASLSARIQATQEARERLIQKAIHLLQETLARDELLQSQLQGFEVTGAPKHLYSIWKKMEREGKTLEQIYALLAVRVILDPKPAPTRESQALREKQVCYHVLGLVHALWQPIPGRVKDYIAVPKPNGAQSLHTTVIALEGLPLEVQIRTREMHRVAEYGIAAHWLYKEGLTDPEEVKRRVSWLKSIQEWQKEFSSSREFVEAVTKDLLGGRVFVFTPKGRIINLPKGATPVDFAYHIHTEVGHHMVGAKVNGRIVPLSYELQNGEIVEILTSKNAHPSKGWLEFAKTRSAKSKIRQYFRAQERQETLERGQHLLERYLKRRGLPKPTDSQLEEAAKRLSLPPSPEELYLALALNRLTPRQVAEKLYPKALLKPEKPKPQVRNEWGIRLEQDLQAPIRLASCCEPMKGDPILGFVTRGRGVTVHRADCPNLRRLLQGPEADRVIGAYWEGVGGKVVVLEVLAQDRAGLLRDVMQVVAEAGKSALGSETRVLGPLARIRLRLAVQDGEEERILQAVQKVSGVKEARWA

How the values were obtained:
Rel synthetase (ST) = experiment: Inhibition of Rel synthetase activity: (p)ppGpp production from GDP or GTP and radioactive ATP, TLC; format: biochemical; settings: enzyme with GDP or GTP and radioactive ATP, absence or presence of compound
Protocol: (§1) As indicated above, the “Yes/No” in the 5th and 6th columns of TABLES A to F indicates whether there is, or respectively is not an inhibition of the synthetase (ST) and/or hydrolase (HD) activity. […] The action of a candidate compound is evaluated based on its effect on the production of (p)ppGpp. Therefore, in order to assess the potential influence of a candidate compound on synthesis activity, the enzyme was mixed with GDP or GTP and radioactive ATP to produce (p)ppGpp in absence or presence of the candidate compound. Subsequently, the reaction is developed by thin layer chromatography (TLC). In an alternative assay that enables determining the effect of a compound on the hydrolysis activity, radioactive (p)ppGpp is incubated with the enzyme and any decrease of the (p)ppGpp spot on TLC is evaluated when the assay is conducted in presence of the compound and compared to control conditions where no candidate compound is added during incubation.

Rel hydrolase (HD) = experiment: Inhibition of Rel hydrolase activity: decrease of radioactive (p)ppGpp spot on TLC; format: biochemical; settings: radioactive (p)ppGpp incubated with enzyme, with vs without compound
Protocol: as §1

full-length RelTt = experiment: ppGpp synthesis (synthase) activity of full-length RelTt and variants, 3H-labeled GDP; format: biochemical, T. thermophilus; parameters: Synthase activity, Substrate: GDP + ATP, RelTt + IC / Synthase activity, Substrate: GDP + ATP, RelTt + IC + tRNA^Val: unit not given here; settings: 40° C.; for Synthase activity, Substrate: GDP + ATP, RelTt + IC + tRNA^Val: with 70S IC and deacylated tRNA^Val; for Synthase activity, Substrate: GDP + ATP, RelTt + IC: with T. thermophilus 70S IC
Protocol: FIG. 1. Biochemical characterization of full-length RelTt. (a) Hydrolysis activity of 100 nM full-length RelTt was assayed in the presence of 0.5 mM 3H-labeled ppGpp substrate either at 4° C. or 40° C. Synthetic activity of 30 nM full-length RelTt was assayed at 40° C. in the presence of either 1 mM ATP (b) or 1 mM APPNP (c), as well 0.3 mM of 3H-labeled GDP and 0.1 mM ppGpp. As indicated on the figure, the reactions were supplemented with 120 nM T. thermophilus 70S IC(MV) added either alone or in combination with 2 μM deacylated E. coli tRNAVal. All experiments were performed in HEPES:Polymix buffer, pH 7.5, 5 mM Mg^2+, either in the presence (a) or absence (b and c) of 0.5 mM Mn^2+. Error bars represent Standard deviations of the turnover estimates by linear regression.

Molecule	ST (inhibition of the synthetase activity) (Rel synthetase (ST))	HD (inhibition of the hydrolase activity) (Rel hydrolase (HD))	Synthase activity, Substrate: GDP + ATP, RelTt + IC + tRNA^Val (full-length RelTt)	Synthase activity, Substrate: GDP + ATP, RelTt + IC (full-length RelTt)	Synthase activity, Substrate: GDP + ATP, RelTt (full-length RelTt; enzyme alone, triplicate)
Cc1nc(N)ncc1C(=O)NCc1cccc(-c2nnn[nH]2)c1 [Compound 59]	No	Yes	–	–	–
O=[N+]([O-])c1ccccc1OCCn1nnc(-c2ccccc2)n1 [Compound 60]	No	Yes	–	–	–
CC(C(=O)O)C(NC(=O)C(C)n1nnc(-c2ccccc2)n1)c1ccccc1 (centres unmarked) [Compound 61]	No	Yes	–	–	–
O=[N+]([O-])c1ccc(CSc2nnc(-c3ccccc3F)o2)cc1 [Compound 62]	No	Yes	–	–	–
Cc1cc(C(=O)N2CCN(c3ncccn3)CC2)c(N)c([N+](=O)[O-])c1 [Compound 63]	No	Yes	–	–	–
O=[N+]([O-])c1ccc(Sc2nnc3c(n2)[nH]c2ccccc23)c([N+](=O)[O-])c1 [Compound 64]	No	Yes	–	–	–
Cc1ccccc1-n1c(SCC(=O)NC(=O)c2cccc([N+](=O)[O-])c2)nnc1-c1ccncc1 [Compound 65]	No	Yes	–	–	–
Cc1ccc(Nc2nc(N/N=C/c3cc(Cl)ccc3O)nc(Nc3ccc([N+](=O)[O-])cc3)n2)cc1C [Compound 66]	Yes	No	–	–	–
Cc1c(Br)c([N+](=O)[O-])nn1CC(=O)Nc1ccc(Cl)cc1Cl [Compound 67]	Yes	Yes	–	–	–
O=C(Nc1ccc(Cl)c([N+](=O)[O-])c1)c1ccc(-c2cccc(Cl)c2Cl)o1 [Compound 68]	Yes	Yes	–	–	–
CCN(CC)C(=O)CN1CCN(c2ccc(NC(=O)Cc3ccc(C)cc3)c(C(=O)O)c2)CC1 [Compound 69]	Yes	Yes	–	–	–
Cc1ccc(CC(=O)Nc2ccc(N3CCN(CC(=O)NC(C)(C)C)CC3)cc2C(=O)O)cc1 [Compound 70]	Yes	Yes	–	–	–
O=[N+]([O-])c1nn(Cc2cccc(-c3nc4c5cn[nH]c5ncn4n3)c2)cc1Cl [Compound 71]	Yes	Yes	–	–	–
O=C(Cc1ccc(Cl)cc1)Nc1ccc(-c2ccc(NC(=O)Cc3ccc(Cl)cc3)c(C(=O)O)c2)cc1C(=O)O [Compound 72]	Yes	Yes	–	–	–
COc1ccc(CC(=O)Nc2ccc(N3CCC(N4CCCCC4)CC3)cc2C(=O)O)cc1 [Compound 73]	Yes	Yes	–	–	–
Cc1ccc(CC(=O)Nc2ccc(N3CCC(N4CCCCC4)CC3)cc2C(=O)O)cc1 [Compound 74]	Yes	Yes	–	–	–
B1	–	–	12.0 ± 2.0	8.5 ± 1.0	–
B2	–	–	10.5 ± 1.8	8.6 ± 2	2.6 ± 0.6
B3	–	–	5.4 ± 2.1	4.5 ± 2.3	–
B4	–	–	8.8 ± 0.69	10.9 ± 3.6	–
